Legend:
Rat plasma SSAO = molecular target: T1, Rat plasma SSAO (Rattus norvegicus, UniProt O08590); assay: Radiochemical-enzyme assay of VAP-1 enzyme (SSAO) activity with 14C-benzylamine, rat plasma; assay type: biochemical
T1 construct: The enzyme suspension prepared from blood plasma was pre-incubated with Compound A; from tissue; host or cells: rat blood plasma
T1 sequence (O08590 27-763 limits assumed): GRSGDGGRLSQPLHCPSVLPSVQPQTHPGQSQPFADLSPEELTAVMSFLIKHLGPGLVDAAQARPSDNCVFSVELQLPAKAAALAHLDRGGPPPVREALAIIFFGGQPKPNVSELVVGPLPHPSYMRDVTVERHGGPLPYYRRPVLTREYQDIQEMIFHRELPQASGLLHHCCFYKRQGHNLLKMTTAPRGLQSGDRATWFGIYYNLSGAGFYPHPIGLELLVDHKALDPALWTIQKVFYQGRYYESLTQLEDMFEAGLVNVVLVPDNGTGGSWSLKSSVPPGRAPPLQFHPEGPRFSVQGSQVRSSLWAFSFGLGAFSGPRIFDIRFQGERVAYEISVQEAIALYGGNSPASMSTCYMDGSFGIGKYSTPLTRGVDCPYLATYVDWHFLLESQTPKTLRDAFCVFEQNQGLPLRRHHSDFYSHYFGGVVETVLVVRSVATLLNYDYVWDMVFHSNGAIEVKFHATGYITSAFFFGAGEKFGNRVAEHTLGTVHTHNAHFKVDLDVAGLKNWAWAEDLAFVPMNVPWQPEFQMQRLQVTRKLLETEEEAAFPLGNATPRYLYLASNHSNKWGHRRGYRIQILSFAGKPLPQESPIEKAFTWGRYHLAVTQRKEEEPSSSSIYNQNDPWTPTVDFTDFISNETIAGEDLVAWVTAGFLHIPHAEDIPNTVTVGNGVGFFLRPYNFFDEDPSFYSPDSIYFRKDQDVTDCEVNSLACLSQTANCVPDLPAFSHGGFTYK
Experimental: (§1) VAP-1 enzyme (SSAO) activity in both human and rat plasma was determined by a radiochemical-enzyme assay using ^14C-benzylamine as artificial substrate. The enzyme suspension prepared from blood plasma was pre-incubated with Compound A in 96-well microplate at room temperature for 30 min. The enzyme suspension was then incubated with ^14C-benzylamine (2×10^−5 mol/l final concentration) in a final volume of 50 μl at 37° C. for 1 hour. The enzyme reaction was terminated by adding 2 mol/l (50 μl) citric acid. The oxidized products were directly extracted into a 200 μl toluene scintillator, and its radioactivity was measured by a scintillation spectrometer. Monoamine oxidase (MAO) and diamine oxidase (DAO, histaminase) activities were also determined by similar method using ^14C-phenylethylamine and ^14C-putrescine as substrate, respectively. Cloned DAO from cDNA libraries was used in human DAO assay. Inhibition activity was expressed as IC50 (μmol/l) value.

Human platelet MAO = molecular target: T2, Human platelet MAO (Homo sapiens, UniProt P27338); assay: Monoamine oxidase (MAO) activity assay with 14C-phenylethylamine; assay type: biochemical
T2 construct: human platelet MAO; from tissue; host or cells: human platelets
T2 sequence (P27338 1-520): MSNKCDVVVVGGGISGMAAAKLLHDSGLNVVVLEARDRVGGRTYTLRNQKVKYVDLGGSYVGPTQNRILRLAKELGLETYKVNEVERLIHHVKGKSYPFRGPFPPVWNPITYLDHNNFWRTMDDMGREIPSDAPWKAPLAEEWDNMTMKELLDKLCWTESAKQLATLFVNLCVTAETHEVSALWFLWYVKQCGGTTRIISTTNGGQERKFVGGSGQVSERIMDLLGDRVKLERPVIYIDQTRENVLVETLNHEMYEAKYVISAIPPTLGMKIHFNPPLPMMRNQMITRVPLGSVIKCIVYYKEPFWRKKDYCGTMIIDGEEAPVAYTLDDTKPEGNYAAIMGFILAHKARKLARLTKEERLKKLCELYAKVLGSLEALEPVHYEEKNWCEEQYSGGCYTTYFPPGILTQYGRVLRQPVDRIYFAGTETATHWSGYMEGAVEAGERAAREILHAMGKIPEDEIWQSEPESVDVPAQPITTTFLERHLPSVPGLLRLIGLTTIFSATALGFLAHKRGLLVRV
Experimental: as §1

diabetic rats = assay: Ocular permeability in STZ diabetic rats (leakage of fluorescein into the vitreous); assay type: in vivo, rat; details: 10 mg/kg, s.c. u.i.d., daily from 2 weeks after STZ for 2 weeks, mean ± S.E.M., 10 rats
Experimental: (§2) Diabetes in rats was induced with an intraperitoneal (i.p.) injection of 65 mg/ml/kg of streptozotocin (STZ) in 2 mmol/l citrate buffer (pH 4.5) after a 20-h fast. At the same time control rats were injected with an equal volume of 2 mmol/l citrate buffer. Plasma glucose level was checked by a calorimetric method. At day 3 of STZ treatment, the rats were diagnosed with diabetes showing a plasma glucose level of 350 mg/dl.
(§3) The treatment of Compound A was given daily from 2 weeks after STZ treatment for 2 weeks. At 24 hrs after final treatment of Compound A, the vascular permeability in oculus was investigated based on the leakage of dye into the vitreous 30 min after intravenous injection of fluorescein solution (40 mg/ml/kg). Permeability was expressed as vitreous/plasma ratio of fluorescein concentration measured by a fluorophotometer. At the same time, the plasma SSAO activity was checked by the radiochemical-enzyme assay using ^14C-benzylamine (2×10^−5 mol/l final concentration) as substrate.
In the same manner as in Example 2, the effect of various VAP-1 inhibitors on ocular permeability was determined in diabetic rats.

plasma SSAO = molecular target: T3, plasma SSAO (Rattus norvegicus, UniProt O08590); assay: Plasma SSAO activity in STZ diabetic rats after treatment; assay type: in vivo
T3 construct: The enzyme suspension prepared from blood plasma was pre-incubated with Compound A; from tissue; host or cells: rat blood plasma
T3 sequence (O08590 27-763 limits assumed): T1 sequence (O08590 27-763 limits assumed)
Experimental: as §2, §3

retinal VEGF = assay: Retinal VEGF level in STZ diabetic rats (Murine VEGF ELISA kit); assay type: in vivo, rat; details: 0.1 mg/kg, sc, u.i.d.
Experimental: STZ diabetic rats were prepared in the same manner as in Example 2. Compound A (0.1 mg/kg, sc, u.i.d.) was administered from 3 days to 8 weeks after the STZ administration. To the normal group and STZ control group, a vehicle was treated. At 8 weeks from the STZ administration, the retina was removed from the animals and the retinal VEGF level was determined using a Murine VEGF ELISA kit.

Compound: CC(=O)Nc1nc(CCc2ccc(NC(=N)N)cc2)cs1 [Compound A, N-{4-[2-(4-{[amino(imino)methyl]amino}phenyl)ethyl]-1,3-thiazol-2-yl}acetamide]
- Inhibition of the enzyme activity of rat plasma SSAO (in words) (Rat plasma SSAO): completely inhibited
- IC50 (Rat plasma SSAO; 30 min pre-incubation, 14C-benzylamine 2×10^−5 mol/l, 37° C., 1 hour, read-out: Inhibitory effect (IC50 values) Rat plasma SSAO): 12 nM
- Inhibition of the enzyme activity of human platelet MAO (in words) (Human platelet MAO): not
- IC50 (Human platelet MAO; 14C-phenylethylamine as substrate, read-out: Inhibitory effect (IC50 values) Human platelet MAO): > 100000 nM
- Vitreous/Plasma Ratio of Fluorescein Concentration (diabetic rats): 5.39 ± 0.73 ×10^−3
- Effect on the increased plasma SSAO activity in diabetic rats (in words) (plasma SSAO; 4 weeks after STZ treatment): dose-dependent inhibition
- Plasma SSAO activity (plasma SSAO; STZ diabetic rats, 4 weeks after STZ, Compound A treatment daily from 2 weeks after STZ, mean ± S.E.M., 10 rats): 2.51 ± 0.26 pmol/min/mL
- Effect on the increased retinal VEGF level in STZ diabetic rats (in words) (retinal VEGF; 3 days to 8 weeks after STZ): completely inhibited
- Retinal VEGF level (retinal VEGF; STZ diabetic rats, from 3 days to 8 weeks after STZ, mean ± S.E.M., 10 rats): 28.3 ± 2.72 pg/mg protein

Source: patent US20080119462A1, “METHOD FOR TREATING VASCULAR HYPERPERMEABLE DISEASE” (Sucampo AG, priority 2003, published 2008)
